Measured values published in patent EP1373238B1, “ALKYLXANTHATES AND THEIR USE AS PESTICIDES” (priority 2001, dated 2002).
In brackets after ≈: the same amount, converted by molar mass. Read-outs that look alike come from different tables or passages of the source.

How the values were obtained:
Assay type in all cases: in vivo
[1] = test system: IV instar larvae of Aedes aegypti; test: Larvicidal activity against mosquito larvae (WHO procedure, 24 hours exposure); settings: read-out: LC50 ± S.E.
Method: To determine the efficacy of different analogues of Alkylxanthates against mosquito larvae, standard procedures as recommended by World Health Organization (1981) were followed with minor modifications. The desired concentration of the test solution was obtained by adding 1 ml of an appropriate stock solution to 249 ml of tap water in 500 ml beaker. Test solutions of different concentrations were prepared by diluting the stock solution in dechlorinated and filtered tap water followed by thorough mixing. Tween -80 [Poly (oxyethylene)n - sorbitan monooleate] was used as an emulsifier at the concentration of 0.002% (v/v) to the final test solution whenever required. Control solutions were prepared in tapwater using acetone or ethanol and Tween -80 (0.002%). To each of the -test concentrations, 25 late third or early fourth instar larvae which were acclimatized earlier were added. At least three replicates of each of the tests were made. Based on the results, five to ten suitable concentrations, which produced 10 to 100% mortality, were selected for detailed study and for calculating LC50 values. Mortality was observed 24 hours after exposing the larvaeto test solutions and the data was corrected for control mortality if any, by using Abbot's formula (Abbot 1925). All tests were carried out at a room temperature maintained at 28 ± 1°C.
(§1) The average mortality and growth inhibition data of experiments was subjected to IBM AT 386 computer analysis at our laboratory for calculating LC50, LD50, EC50, ED50,etc., and other statistical data. The software used was developed by Reddy et al., 1992.

[2] = test system: Brine shrimp, Artemia salina; test: Brine shrimp bioassay (toxic activity); settings: read-out: LC50 ± S.E.
Method: Brine shrimp (Artemiasalina) eggs were hatched in a shallow rectangular dish filled with artificial seawater, which was prepared with commercial salt mixture and double distilled water. A plastic divider with several 2-mm holes was clamped in the dish to make two unequal compartments. The eggs were sprinkled into the larger compartment that was darkened, while the smaller compartment was illuminated. After 48 hours the phototropic nauplii were collected by pipette from the lighted side, being separated by the divider from their shells.
Twenty shrimps were transferred to each sample vial and artificial seawater was added to make 5 ml. The nauplii can becounted macroscopically in the stem of the pipette against a lighted back ground. A drop of dry yeast suspension (3µg in5ml artificial seawater) was added as food to each vial (Meyer, et al., 1982). Survivors were counted with the aid of a 3 x magnifying glass, after 24 hours, and the percent mortality at each concentration and control was determined. The 24 hour counts were more useful. During control deaths, the data was corrected using Abbot's formula.
as §1

[3] = test system: late third instar of Spodoptera litura; test: Antifeedant activity, painted leaf disks of Ricinus cummunis; set-up: key to A.I (Anti-feedent index): percent protection of treated vs untreated leaf disks; settings: for Concentration required for 50% leaf protection EC50 ±S.E: oral feeding, leaf disk
Method: as §1
Methodology for Antifeedant activity: Tobacco caterpillar, Spodoptera litura F., larvae will be reared on Ricinus cummunis L. leaves at 27°C and 65-70% R.H. Known area (cm^2) of leaf disks were painted with exact amount of pure compound (dissolved in acetone) and were dried at room temperature till the carrier solvent evaporated. For each concentration 5 to 6 replicates were prepared and experiments were conducted individually. Control disks were dipped in carrier solvent (acetone) alone. Third instar larvae weighing 200-250 mg are selected from stock culture, starved for 4 hr, and will be used individually for the assay of antifeedant activity. After 12 and 24 hours, leaf area meter was used to measure the consumed area of treated and untreated leaves. Based on the data the percent protection of individual compound was calculated. All these properties were compared with well-known antifeedant isolated from neem kemal 'Azadiractin'. Control and test larvae arc transferred on fresh leaves and'monitored till adult emergence to study the growth and behavioral aspects of the insect.

[4] = test system: Helicoverpa armigera (Hubner); test: Growth regulatory (IGR) activity, topical application
[5] = IV instar larvae, mortality after 24 hours

Row | Structure (SMILES) | LC50 [1, 5] [µg/mL] | LC50 ([2]; mortality after 24 hours) [µg/mL] | A.I (Anti-feedent index) ([3]; 10 µg/sq.cm.) | Percent leaf consumption 12 hr ([3]; 10 µg/sq.cm.) [%] | Percent leaf consumption 24 hr ([3]; 10 µg/sq.cm.) [%] | A.I (Anti-feedent index) ([3]; 15 µg/sq.cm.) | Percent leaf consumption 12 hr ([3]; 15 µg/sq.cm.) [%] | Percent leaf consumption 24 hr ([3]; 15 µg/sq.cm.) [%] | A.I (Anti-feedent index) ([3]; 20 µg/sq.cm.) | Percent leaf consumption 12 hr ([3]; 20 µg/sq.cm.) [%] | Percent leaf consumption 24 hr ([3]; 20 µg/sq.cm.) [%] | A.I (Anti-feedent index) ([3]; 25 µg/sq.cm.) | Percent leaf consumption 12 hr ([3]; 25 µg/sq.cm.) [%] | Percent leaf consumption 24 hr ([3]; 25 µg/sq.cm.) [%] | Concentration required for 50% leaf protection EC50 ±S.E [3] | LC50 ([1]; iv, 24 h) [µg/mL] | also measured
1 | CCCCOC(=S)SCSC(=S)OCCCC [Compound 5, Methylene Bis (n-butytxanthate)] | 5.33 ± 0.97 (≈ 17.1 µM) | 34.6 ± 3.91 (≈ 111 µM) | 5.50 | 48.5 | 85.1 | 22.27 | 35.2 | 60.4 | 35.14 | 22.5 | 45.6 | 64.22 | 3.5 | 20.7 | 17.11±1.36 µg/cm^2 | – | A.I (Anti-feedent index) ([3]; 30 µg/sq.cm.): 85.37; Percent leaf consumption 12 hr ([3]; 30 µg/sq.cm.): -0- %; Percent leaf consumption 24 hr ([3]; 30 µg/sq.cm.): 7.5%
2 | CC(C)COC(=S)SCCSC(=S)OCC(C)C [Compound 4, Ethylene Bis (isobutylxanthate)] | 8.06 ± 0.22 (≈ 24.7 µM) | 25.8 ± 2.9 (≈ 78.9 µM) | – | – | – | – | – | – | – | – | – | – | – | – | – | – | –
3 | CC[C@@]1(O)C(=O)OCc2c1cc1n(c2=O)Cc2cc3ccccc3nc2-1 [Chamtothecin, reference compound] | – | – | – | – | – | – | – | – | – | – | – | – | – | – | – | – | LC50 ([2]; 24 h): 2.53 ± 0.43 µg/mL (≈ 7.26 µM)
4 | CCCCOC(=S)SCc1cccc(F)c1 [Compound 2, m-Fluorobenzyl (n-butylxanthate)] | – | 19 ± 2.83 (≈ 73.5 µM) | – | – | – | – | – | – | – | – | – | – | – | – | – | 12.5 ± 1.24 (≈ 48.5 µM) | –
5 | CC(C)COC(=S)SCc1cccc(F)c1 [Compound 3, m-Fluorobenzyl (isobutylxanthate)] | – | 22.5 ± 3.26 (≈ 87.2 µM) | 11.63 | 50.4 | 75.2 | 16.07 | 33.24 | 68.7 | 27.86 | 24.7 | 53.6 | 48.67 | 12.5 | 32.8 | 19.65±2.99 µg/cm^2 | 11.8 ± 2.35 (≈ 45.6 µM) | –
6 | C/C=C(\C)C(=O)O[C@H]1C[C@@H](OC(C)=O)[C@@]2(C(=O)OC)CO[C@H]3[C@@H](O)[C@@](C)([C@]45O[C@@]4(C)[C@H]4C[C@@H]5O[C@@H]5OC=C[C@@]54O)[C@H]4[C@]1(CO[C@]4(O)C(=O)OC)[C@@H]32 [Azadiractin, reference compound] | – | – | 48.09 | 18.6 | 33.3 | 54.98 | 16.4 | 27.6 | 76.42 | 4.2 | 12.7 | – | – | – | 6.34±.77 µg/cm^2 | – | IGR activity, mode of action [4]: less larvicidal activity, minimized in the formation of normal pupae and emergence of normal adults; A.I (Anti-feedent index) ([3]; 5.0 µg/sq.cm.): 24.84; Percent leaf consumption 12 hr ([3]; 5.0 µg/sq.cm.): 33.7%; Percent leaf consumption 24 hr ([3]; 5.0 µg/sq.cm.): 57.2%
7 | S=C(OCC1CCCO1)SCSC(=S)OCC1CCCO1 (stereo not shown) [Compound 1, Methylene Bis(tetrahydrofurfurylxanthate)] | – | 5.63 ± 0.62 (≈ 15.3 µM) | – | – | – | – | – | – | – | – | – | 22.42 | 31.5 | 60.2 | 37.21±9.67 µg/cm^2 | 3.77 ± 0.59 (≈ 10.2 µM) | A.I (Anti-feedent index) ([3]; 12.5 µg/sq.cm.): 8.20; Percent leaf consumption 12 hr ([3]; 12.5 µg/sq.cm.): 48.6%; Percent leaf consumption 24 hr ([3]; 12.5 µg/sq.cm.): 80.6%; A.I (Anti-feedent index) ([3]; 35 µg/sq.cm.): 33.52; Percent leaf consumption 12 hr ([3]; 35 µg/sq.cm.): 25.9%; Percent leaf consumption 24 hr ([3]; 35 µg/sq.cm.): 47.3%; A.I (Anti-feedent index) ([3]; 50 µg/sq.cm.): 35.23; Percent leaf consumption 12 hr ([3]; 50 µg/sq.cm.): 22.1%; Percent leaf consumption 24 hr ([3]; 50 µg/sq.cm.): 45.5%
8 | CCCCOC(=S)SCc1ccc(CSC(=S)OCCCC)cc1 [Compound 12, p-Xylene Bis (n-butylcanthate)] | 7.35 ± 0.51 (≈ 18.3 µM) | 45.2 ± 5.63 (≈ 112 µM) | 2.59 | 57.3 | 90.2 | 5.97 | 62.4 | 84.3 | 24.51 | 35.2 | 57.6 | 58.86 | 20.5 | 24.6 | 20.45±1.76 µg/cm^2 | – | –
